Where a name gives a salt, the structure may show the parent alone.
Columns and labels:
[1] = test system: body temperature; assay: Hypothermia Test (effect on body temperature); type: in vivo, CF-1 male mice; conditions: for ED50: Mus musculus, ip, 0.75 h, read-out: Hypothermia ED50; for active in either the hypothermic or the apomorphine antogonism test: either test: hypothermic or apomorphine antagonism
Description: (§1) The Effect on Body Temperature (Hypothermia) Test and the Antagonism of Apomorphone-Induced Case Climbing (ACC), (Apomorphine Gnawing Test) are described on page 1398 of the publication, Journal of Medicinal Chemistry, Vol. 22, No. 11, pp. 1390-1398, in an article entitled "6-Aryl-4H-s-triazolo[4,3-a][1,4]benzodiazepines....Action" by J. B. Hester, Jr., et al.
For the tests here, the Hypothermia Test procedure was run as follows:
A group of four CF-1 male mice (18-22 g each) was injected intraperitoneally with the test compound prepared in 0.25 percent w/v methylcellulose in water solution. After 45 min, abdominal temperature of each mouse was measured using a thermister probe. A control group of four mice was treated with vehicle only and the temperature of the control group was taken in a similar manner. A compound was considered to have a significant effect on body temperature if the mean temperature in the test compound treated group deviated more than 3.5°C from the mean temperature of the parallel control group. Stimulants tend to elevate temperatures; depressants tend to lower body temperature.

[2] = test system: Apomorphone-Induced Case Climbing; assay: Apomorphine antagonism (Apomorphine gnawing test; apomorphine-induced cage climbing); type: in vivo, Mouse; conditions: Mus musculus, read-out: Apomor. Antag. ED50
From the text: as §1
(§2) Table 3. […] A. Behavioral effects in the rat. B. Behavioral effects in the monkey. C. Doses required to antagonize the indicated behavioral effects of amphetamine. D. Doses required to antagonize the indicated behavioral effects of apomorphine.

[3] = test system: Dopamine (3H-spiperone); assay: Receptor Binding Assay with 3H-spiperone (Dopamine Binding Assay), rat brain homogenate; conditions: for Dopamine Binding Assay % Decrease from Control: single concentration of 1 uM, 3H-spiperone, rat brain homogenate, 30 min
Description: The Receptor Binding Assay test for antipsychotic acitvity, was conducted as follows:
A rat brain homogenate was prepared (1) by homogenizing a whole rat brain minus the cerebellum in 10 ml of 0.05M THAM-HC1, pH 7.4, using a Polytron at a setting of 7 for 30 sec. and centrifuging at 15,000xg for 10 min. The supernatant was discarded, the pellet resuspended in 10 ml of buffer using the Polytron for 10 sec., and the centrifugation repeated. The pellet was resuspended and diluted to 100 times the original tissue weight with buffer. Then 100 ml of the homogenate was diluted to 400 ml with buffer.
The test drug was weighed out in a scintillation vial in a 1-5 mg ammount. They were dissolved by adding 0.5 ml of N-N-dimethylformamide of (DMF) and then 0.05 ml of 1M acetic acid, and vortexed to solubilize the drug. Then 10 ml of deionized and filtered water was added to the required volume. All compounds were tested at a single concentration of 1 uM.
Samples were prepared for incubation using an ^3H-spiperone (antipsychotic).
Incubation was conducted at 30°C for 30 min. on a shaking water bath. Every 30 sec., 24 tubes were filled with 1 ml of homogenate and put into the bath (this is done every 3 min. until all tubes are in the bath). Upon completion of the incubation procedure, the samples are filtered and rinsed.
The punched filters are dropped into vials, which are in turn filled with ACS liquid scintillation fluid and capped and counted in a liquid scintillation counter. Counting data is recorded and analyzed.
Results are expressed as percent decrease from control.

[4] = test system: alpha-1; assay: Alpha-1 ligand binding, rat brain homogenates; conditions: 1μM, i.a. = inactive
[5] = test system: alpha-2; assay: Alpha-2 ligand binding, rat brain homogenates; conditions: 1μM, - indicates ligand was displaced
[6] = test system: dopamine metabolites HVA, DOPAC, and 3MT; assay: Dopamine metabolites in rat brain; type: in vivo; conditions: percentage of control; 3 mg/kg of chlorpromazine, 30 mg/kg clozapine or U-64,273A; Sprague-Dawley rat
[7] = test system: plasma prolactin; assay: Plasma prolactin; type: in vivo; conditions: 3 mg/kg of chlorpromazine, 30 mg/kg clozapine or U-64,273A; Sprague-Dawley rat
[8] = test system: LSD; assay: LSD ligand binding, rat brain homogenates; conditions: 1μM, - indicates ligand was displaced
[9] = test system: muscarinic; assay: Muscarinic ligand binding, rat brain homogenates; conditions: 1μM, - indicates ligand was displaced
[10] = test system: Locomotor activity; assay: Antagonism of apomorphine locomotor activity in reserpinized mouse; type: in vivo
From the text: as §2

[11] = test system: dopamine neurons; assay: Depression of dopamine neuron firing rates by the drug alone; type: in vivo, rats; conditions: Rattus norvegicus, iv; for Emax: read-out: MAXIMUM EFFECT (per cent decrease)
Description: (§3) Table 2. Dopamine neuron firing rates were recorded according to published procedures and drugs were injected intravenously in chloral hydrate anesthetized rats. A. Ability of drugs to reverse the depression in firing rates of dopamine neurons by 1 to 2 mg/kg amphetamine. The maximum effect is the maximum amount of the amphetamine effect that was reversed, even when doses were increased beyond dose causing maximum effect. An effect greater than 100% indicates excitation of the neuron beyond its' control rate whereas an effect less than 100% indicates partial agonist effects. B. Depression of dopamine neurons by full agonist apomorphine and partial agonists TDHL, (-)PPP and U-64,273A. Maximum effect is maximum depression that could be realized even after increasing doses beyong the dose causing maximum effect. For both A and B, the ED50 is the dose causing 50% of the respective antagonistic (A) or agonist (B) effect.

[12] = test system: 6-OH DA Turning; assay: Antagonism of amphetamine: 6-OH DA turning; type: in vivo; conditions: i.a. = inactive
From the text: as §2

[13] = test system: Catalepsy; assay: Catalepsy; conditions: rat
From the text: as §2

[14] = test system: dopamine neurons; assay: Reversal of amphetamine depression of dopamine neuron firing rates; type: in vivo, rats; conditions: for ED50 / Emax: Rattus norvegicus, Neuron, iv; for Emax: read-out: MAXIMUM EFFECT (per cent reversal)
Description: as §3, with “An effect greater than 100% indicates excitation of the neuron beyond its' control rate whereas an effect less than 100% indicates partial agonist effects.” left out

[15] = test system: body temperature; assay: Antagonism of drug-induced hypothermia; design: species or system mice; conditions: mouse, in vivo
[16] = Neuron, dose causing 50% of the agonist effect, intravenously, anesthetized rats, read-out: ED50
[17] = B. depress DA neuron firing rates, intravenously, chloral hydrate anesthetized rats

`Cc1ccc2c3c(cccc13)CC(N(C)C)C2` (stereo not drawn) [Example 39, part C, 2,3-dihydro-N,N,6-trimethyl-lH-phenalen-2-amine] was tested, and the ED50 [1] was 5.3 mg/kg and the ED50 [2] was 21 mg/kg.

With `CN(C)CCCN1c2ccccc2Sc2ccc(Cl)cc21` [CHLORPROMAZINE, chlorpromazine, reference compound] the “spiperone, percentage of ligand displaced” value ([3]; 1μM, rat brain homogenates, - indicates ligand was displaced) was -81.6%, the “alpha-1, percentage of ligand displaced” value [4] was -98.6% and the “alpha-2, percentage of ligand displaced” value [5] was -83.4%. For the same compound, the 3MT [6] was 365%, the DOPAC [6] was 375% and the HVA [6] was 225%. The “Plasma Prolactin” value [7] was 1057%, the “LSD, percentage of ligand displaced” value [8] was -76.8% and the “muscarinic, percentage of ligand displaced” value [9] was -96.4%. For the same compound, the “Locomotor activity, reserpinized mouse, 3 mg/kg (antag. of apomorphine)” value [10] was 85% (CPZ).

In the case of `CN1CCc2cccc3c2[C@H]1Cc1ccc(O)c(O)c1-3` [Apomorphine, apomorphine], the ED50 [11, 16] is reported as 0.01 mg/kg, the Emax [11, 17] is reported as 100% and the “6-OH DA Turning, rat, dose required to antagonize amphetamine” value [12] is reported as “i.a”. The “Catalepsy, active dose” value ([13]; in vivo) was “i.a”.

Work on `CCCN1CCC[C@@H](c2cccc(O)c2)C1` [(-)PPP] yielded an ED50 [11, 16] of 0.137 mg/kg and an Emax [11, 17] of 68%.

In the case of `CCCN(CCC)C1(C)Cc2cccc3cc(O)cc(c23)C1` (stereo not drawn) [Example 41, 5-Hydroxy-2-methyl-2,3-dihydro-N,N-di-n-propyl-lH-phenalene-2-amine], the “Dopamine Binding Assay % Decrease from Control” value [3] is reported as -55.18%, the ED50 [1] is reported as over 50 mg/kg and the ED50 [2] is reported as over 50 mg/kg.

In the case of `CN(C)C1Cc2cccc3cccc(c23)C1` [U-65,556, 2,3-dihydro-N,N-dimethyl-lH-phenalen-2-amine], the “reversal of amphetamine's depression of DA neuronal firing (in words)” value ([14]; intravenous, anesthetized rats) is reported as “reversed amphetamine's depressions of DA neurons without causing firing rates to increase over control”.

In the case of `CNC1Cc2cccc3c(C)ccc(c23)C1` (stereo not drawn) [Example 39, part B, 2,3-dihydro-N,6-dimethyl-1H-phenalen-2-amine], the “Dopamine Binding Assay % Decrease from Control” value [3] is reported as -55.37%, the ED50 [1] is reported as 13 mg/kg and the ED50 [2] is reported as 35 mg/kg.

With `Cc1ccc2c3c(cccc13)CC(N)C2` (stereo not drawn) [Example 38, part C, 6-methyl-2,3-dihydro-lH-phenalen-2-amine] the “Dopamine Binding Assay % Decrease from Control” value [3] was -30.62%, the ED50 [1] was over 50 mg/kg and the ED50 [2] was 35 mg/kg.

`CCCN(CCC)C1Cc2cccc3c(SC)ccc(c23)C1` (stereo not drawn) [Example 40, 2,3-Dihydro-N,N-di-n-propyl-6-methylthio-lH-phenalen-2-amine] showed an ED50 [1] of 25 mg/kg and an ED50 [2] of 12.5 mg/kg.

`COC(=O)[C@@H]1[C@H]2C[C@H]3c4[nH]c5ccccc5c4CCN3C[C@@H]2CC[C@@H]1O` [yohimbine] was tested, and the “block of hypothermia induced by 2-(N,N-di-n-propylamino)-2,3-dihydro-lH-phenalen-5-ol” value [15] was “did not alter” and the “block of hypothermia induced by clonidine” value [15] was “did block”.

`CCCN(CCC)C1Cc2cccc3c(C)ccc(c23)C1` (stereo not drawn) [Example 38, title compound, 2,3-Dihydro-6-methyl-N,N-dipropyl-lH-phenalene-2-amine] was tested, and the “Dopamine Binding Assay % Decrease from Control” value [3] was -82.08%, the ED50 [1] was 18 mg/kg and the ED50 [2] was over 50 mg/kg.

With “N,N-dimethyl-4-methoxy-1H-phenalen-2-ylamine hydrochloride, 0.25 H20 hydrate [(30)]” the “active in either the hypothermic or the apomorphine antogonism test” value [1] was “active”.

Work on `CCN(CC)C(=O)N[C@H]1C[C@@H]2c3cccc4[nH]cc(c34)C[C@H]2N(C)C1` [TDHL, trans-dihydrolisuride] yielded an ED50 [14] of 0.132 mg/kg, an Emax [14] of 57% and an ED50 ([11]; Neuron) of 0.021 mg/kg. The Emax ([11]; Neuron) was 53%.

With `CN1CCN(C2=Nc3cc(Cl)ccc3Nc3ccccc32)CC1` [Clozapine, clozapine] the 3MT [6] was 104%, the DOPAC [6] was 110% and the HVA [6] was 118%. For the same compound, the Emax ([14]; A. antagonize amphetamine depressions, intravenously, chloral hydrate anesthetized rats, 1 to 2 mg/kg amphetamine, >100% = excitation beyond control rate) was 105%, the ED50 ([14]; dose causing 50% of the antagonistic effect, intravenously, anesthetized rats, read-out: ED50) was 2 mg/kg and the “Catalepsy, active dose” value ([13]; i.a. = inactive) was “i.a”. For the same compound, the “Plasma Prolactin” value [7] was 42% and the “Locomotor activity, reserpinized mouse, 3 mg/kg (antag. of apomorphine)” value [10] was 52%.

For `Brc1ccc2c3c(cccc13)CC(N1CCC1)C2` (stereo not drawn) [(12), 1-[6-bromo-2,3-dihydro-1H-phenalen-2-yl]azetidine], the “active in either the hypothermic or the apomorphine antogonism test” value [1] was “active”.

With `O=C(CCCN1CCC(O)(c2ccc(Cl)cc2)CC1)c1ccc(F)cc1` [Haloperidol, haloperidol] the ED50 [14] was 0.008 mg/kg, the Emax [14] was 164% and the “increase of firing rates to a level greater than controls” value ([14]; after reversal of amphetamine depression of DA neuronal firing) was 64%. The “Catalepsy, active dose” value ([13]; in vivo) was 1 mg/kg and the “block of hypothermia induced by 2-(N,N-di-n-propylamino)-2,3-dihydro-lH-phenalen-5-ol” value [15] was “significantly blocks”.

For `CCCN(CCC)C1Cc2cccc3cc(O)cc(c23)C1` (racemic) [(17), (±)2-(N,N-di-n-propylamino)-2,3-dihydro-lH-phenalen-5-ol hydrobromide salt], the “active in either the hypothermic or the apomorphine antogonism test” value [1] was “active”.

In the case of `CCCN(CCC)C1Cc2cccc3ccc(OC)c(c23)C1` (stereo not drawn) [(25), N,N-di-n-propyl-4-methoxy-2,3-dihydro-lH-phenalen-2-amine hydrochloride], the “active in either the hypothermic or the apomorphine antogonism test” value [1] is reported as “active”.

`CCCN(CCC)C1Cc2cccc3cc(O)cc(c23)C1` (single isomer, unassigned; (+)) [(33), (+)-2-(N,N-di-n-propylamino)-2,3-dihydro-lH-phenalen-5-ol hydrobromide] was tested, and the “active in either the hypothermic or the apomorphine antogonism test” value [1] was “active”.

For `CN(C)C1Cc2cccc3cc(O)cc(c23)C1` (stereo not drawn) [(23), 2-(N,N-dimethylamino)-2,3-dihydro-lH-phenalen-5-ol], the “active in either the hypothermic or the apomorphine antogonism test” value [1] was “active”.

With `NC1Cc2cccc3cc(OCc4ccccc4)cc(c23)C1` (stereo not drawn) [(38), [2-amino-2,3-dihydro-lH-phenalen-5-yl]-a-benzyl ether hydrochloride] the “active in either the hypothermic or the apomorphine antogonism test” value [1] was “active”.

For `CCCN(CCC)C1Cc2cccc3cc(OCc4ccccc4)cc(c23)C1` (stereo not drawn) [(18), [2-(N,N-di-n-propylamino)-2,3-dihydro-lH-phenalen-5-yl]-a-benzyl ether], the “active in either the hypothermic or the apomorphine antogonism test” value [1] was “active”.
